Test results: patent US11964984B2, “TXNIP-TRX complex inhibitors and methods of using the same” (CITY OF HOPE, priority 2020, dated 2024)

Tested on: THP1 cells
Test: RNA-seq transcriptome profiling of THP1 cells in high glucose (differential expression, GO, GSEA)
Format: cell-based, human
Conditions: for biological processes (BPs) suppressed (GSEA): HG treated THP1 cells; for number of downregulated genes, compound+HG versus HG / number of upregulated genes, compound+HG versus HG / rank of TXNIP gene among differentially expressed genes / number of HG-induced genes inhibited by the compound (overlap): THP1, 25 mM glucose; for number of downregulated genes, compound+HG versus HG / number of upregulated genes, compound+HG versus HG / rank of TXNIP gene among differentially expressed genes / functions of downregulated genes (Gene ontology analysis): 5 uM; for number of downregulated genes, compound+HG versus HG / number of upregulated genes, compound+HG versus HG / functions of downregulated genes (Gene ontology analysis): fold change ≥2 and FDR<5%; for rank of TXNIP gene among differentially expressed genes: p-value close to 0; for number of HG-induced genes inhibited by the compound (overlap): 72 hours, 2.5 um compound, FC >2 or <0.5, FDR-adjusted p <0.05; for number of HG upregulated genes downregulated by both C30 and C38: THP1, FC≥1.5 & FDR<5%; for functions of downregulated genes (Gene ontology analysis) / normalized enrichment score (NES), HG-downregulated genes (GSEA) / normalized enrichment score (NES), HG-upregulated genes (GSEA): THP1 in HG; for normalized enrichment score (NES), HG-downregulated genes (GSEA) / normalized enrichment score (NES), HG-upregulated genes (GSEA): with versus without compound
Protocol: FIGS. 10A-10C. C30 and C38 inhibit the same subset of genes induced by high glucose (HG). THP1 cell were cultured in RPMI 1640 medium under 25 mM glucose for 72 hours with […] C30 or C38. Total RNA was prepared and sent for RNA-seq. Differential expression analysis was conducted as described in the Methods. […] FIG. 10A: Overlap between HG-induce genes and C30-inhibited genes in THP1 cells. FIG. 10B: Overlap between HG-induce genes and C38-inhibited genes in THP1 cells. FIG. 10C: Overlap between common genes from FIG. 10A (60 genes) and common genes from FIG. 10B (64 genes).
FIGS. 11A-11B. FIG. 11A: Heatmap of 60 high glucose-responsive and C30/C38-inhibited genes. Differential expression was calculated using these counts with edgeR (5, 6) version 3.0. After correcting for differences in library sizes, a fold change of >1.5 and a p-value of <0.05 were applied to select expressed genes. Overlapped genes were used for generating heatmap using Java TreeView. NG: THP1 under 5 mM glucose; HG: THP1, 25 mM glucose; C30: THP1, 25 mM glucose, 5 uM C30; C38: THP1, 25 mM glucose, 5 uM C38. All are replicates. From top to bottom: HSD11B1, EGR1, NFE2, CCL2, TIFAB, SH2D2A, UHRF1, CD52, TIMP3, TNF, S100P, PAQR4, LY6E, VPS9D-AS, RNASE3, MIR4258, GAS6, LIMD2, MBOAT7, CFD, PKMYT1, CHAC1, MFNG, DEFB1, ICAM2, NT5DC2, GPR35, HINT2, SEPT5-GP1BB, NRSN2, CDH24, SLC37A2, ADAT3, LST1, SPNS3, LTB, H2AFX, FUOM, FAM163A, BATF3, TMEM160, CITED4, MIR3661, TNFSF14, SLC6A9, TONSL, AVEN, SUSD3, TSPO, DDIT4, CKB, SLC22A31, HAAO, MF5SD3, SLC38A5, SIGMAR1, RGMA, DNPH1, ADGRE5, C20orf24, GATA2, RAB37, GDPD5, GAREM2, PIGQ, IMPA2, CRYBB2P1, UCP2, RELB, FOXL2, STC2, HOXA11-AS, MIR1282, RTN2, ZNF511, STARD10, NRM, NF2, ITGB7, POMGNT, KLF10, KLF2, NECAB2, C6orf223, IGFBP4, ACP2, TMEM161A, RHBDD2, YDJC, G0S2, FAM20C, TKTL1, PDIA3P1, HCST, FBXL15, LINC00116, FLNA, TXNIP, MIR3687-1, ARRDC4.
FIG. 21. Volcano plots on gene expression changes induced by TXNIP inhibitors (C30 or C38) under high glucose (HG) conditions in THP1 cells. Gene expression in THP cells grown in HG were treated with and without C30 or C38 and profiled by RNAseq. Expression of RefSeq genes with rpkm≥5 in at least one sample were TMM-normalized and compared in cells treated with HG plus C30 or C38 (C30+HG or C38+HG) versus the cells treated with HG alone using edgeR (v 3.28.1). […] Each dot represents one gene with fold change (in log 2 format) in C30/C38+HG sample vs. HG as x-axis and significance level (in −log 10 format) as y-axis.
FIG. 22. Enriched BPs on DEGs induced by TXNIP inhibitors. […] The enriched BPs were identified at FDR<5% using enrichGO R package and up to 15 BPs with the most significant enrichment are shown as horizontal bar plots. In each bar, number of DEGs in the BP is presented by y-axis and the enrichment significance is represented by different grey-scale colors indicated in the color bar.
FIG. 24. Impact of C30/C38 treatment on HG-regulated genes by GSEA analysis. […] In the analysis for each treatment (C30 or C38), all the expressed genes were ranked based on the signed significance levels, −log10 Pvalue with signs determined by FC (positive if FC>1 and negative if FC<1), on each gene's expression difference between samples with and without treatment. The overall gene expression difference in THP1 cells (in HG condition) treated with or without C30/C38 on these two genesets were analyzed using pre-ranked GSEA analysis.
FIG. 25. […] All the expressed genes were ranked based on the signed significance levels of each gene's expression difference (C30+HG vs. HG). […] In the plot shown, each bubble represents one geneset. […] Genesets related to BPs are represented by solid black bubbles and related to HG regulated genesets are shown as hollow black bubbles.
FIG. 26. […] All the expressed genes were ranked based on the signed significance levels of each gene's expression difference (C38+HG vs. HG). […] In the plot, each bubble represents one geneset. […]

Which “biological processes (BPs) suppressed (GSEA)” value does the source give for `COc1cc(N2CC[C@@H](c3ccc4ccccc4c3)[C@H](O)C2)nc(N)n1` [Compound C30] here?
The value was “strongly suppresses BPs related to DNA replication, cell cycle, lipopolysaccharide metabolic process”.

What about the “number of downregulated genes, compound+HG versus HG” value of the same molecule?
Its value is 571 genes.

And the “number of upregulated genes, compound+HG versus HG” value?
The value was 746 genes.

And the “rank of TXNIP gene among differentially expressed genes” value?
Its value is “most-significantly downregulated gene”.

And the “number of HG-induced genes inhibited by the compound (overlap)” value?
The value was 60 genes.

What about the “number of HG upregulated genes downregulated by both C30 and C38” value of the same molecule?
The value was 23 genes.

What about the “functions of downregulated genes (Gene ontology analysis)” value of the same molecule?
Its value is “substantially inhibit functions related to immune/inflammation response”.

And the “normalized enrichment score (NES), HG-downregulated genes (GSEA)” value?
The value was 1.63.

What about the “normalized enrichment score (NES), HG-upregulated genes (GSEA)” value of the same molecule?
The value was −1.84.

What does the source list for `c1ccc(CCNc2ncnc3c2oc2ccccc23)cc1` [Compound C38]?
biological processes (BPs) suppressed (GSEA): suppressing BPs involved in metabolic process, DNA replication, immune response, splicing; number of downregulated genes, compound+HG versus HG: 537 genes; number of upregulated genes, compound+HG versus HG: 741 genes; rank of TXNIP gene among differentially expressed genes: most-significantly downregulated gene; number of HG-induced genes inhibited by the compound (overlap): 64 genes; number of HG upregulated genes downregulated by both C30 and C38: 23 genes; functions of downregulated genes (Gene ontology analysis): substantially inhibit functions related to immune/inflammation response; normalized enrichment score (NES), HG-downregulated genes (GSEA): 1.83; normalized enrichment score (NES), HG-upregulated genes (GSEA): −1.98
